Data published in the NIST ThermoML archive (doi:10.1021/acs.jced.7b00106).

Details: Hot wire method

FC(F)(F)/C=C/Cl [(E)-1-chloro-3,3,3-trifluoroprop-1-ene]
Details	thermal conductivity [W/m/K]
302.53 K, 136 kPa, Gas	0.01102
302.53 K, 16444 kPa, Liquid	0.0897
302.53 K, 47194 kPa, Liquid	0.1006
302.55 K, 122 kPa, Gas	0.01105
302.55 K, 36223 kPa, Liquid	0.09702
302.57 K, 8074 kPa, Liquid	0.08557
302.59 K, 25791 kPa, Liquid	0.09335
302.6 K, 16014 kPa, Liquid	0.08919
302.61 K, 11882 kPa, Liquid	0.08715
302.61 K, 30546 kPa, Liquid	0.0947
302.62 K, 142 kPa, Gas	0.01123
302.62 K, 7818 kPa, Liquid	0.08552
302.64 K, 122 kPa, Gas	0.01131
302.64 K, 131 kPa, Gas	0.01128
302.64 K, 139 kPa, Gas	0.01119
302.65 K, 7853 kPa, Liquid	0.08571
302.65 K, 25491 kPa, Liquid	0.09284
302.66 K, 20510 kPa, Liquid	0.09077
302.68 K, 16449 kPa, Liquid	0.08922
302.7 K, 373 kPa, Liquid	0.08122
302.72 K, 4080 kPa, Liquid	0.08356
302.72 K, 8075 kPa, Liquid	0.08531
302.75 K, 11886 kPa, Liquid	0.08659
302.75 K, 16005 kPa, Liquid	0.08846
302.75 K, 62930 kPa, Liquid	0.106
302.76 K, 303 kPa, Liquid	0.08187
302.76 K, 65463 kPa, Liquid	0.1068
302.78 K, 7822 kPa, Liquid	0.08491
302.79 K, 56432 kPa, Liquid	0.1045
302.81 K, 7852 kPa, Liquid	0.08507
302.82 K, 48051 kPa, Liquid	0.1011
302.83 K, 48410 kPa, Liquid	0.1013
302.85 K, 131 kPa, Gas	0.0108
302.85 K, 136 kPa, Gas	0.01096
302.86 K, 122 kPa, Gas	0.011
302.87 K, 381 kPa, Liquid	0.08077
302.88 K, 4074 kPa, Liquid	0.08317
302.91 K, 62949 kPa, Liquid	0.1057
302.92 K, 299 kPa, Liquid	0.08155
302.92 K, 36387 kPa, Liquid	0.09706
302.92 K, 65445 kPa, Liquid	0.1067
302.93 K, 41986 kPa, Liquid	0.09906
302.93 K, 47187 kPa, Liquid	0.1008
302.95 K, 36224 kPa, Liquid	0.09698
302.95 K, 56429 kPa, Liquid	0.1038
302.98 K, 48055 kPa, Liquid	0.1009
303 K, 48417 kPa, Liquid	0.101
303.02 K, 25798 kPa, Liquid	0.09309
303.03 K, 30542 kPa, Liquid	0.09496
303.04 K, 142 kPa, Gas	0.01123
303.06 K, 137 kPa, Gas	0.01133
303.07 K, 121 kPa, Gas	0.01128
303.07 K, 131 kPa, Gas	0.01133
303.08 K, 25486 kPa, Liquid	0.09308
303.09 K, 20509 kPa, Liquid	0.09124
303.09 K, 41994 kPa, Liquid	0.09863
303.09 K, 47182 kPa, Liquid	0.1005
303.12 K, 16450 kPa, Liquid	0.08937
303.12 K, 36213 kPa, Liquid	0.09661
303.17 K, 135 kPa, Gas	0.01096
303.18 K, 122 kPa, Gas	0.01101
303.18 K, 132 kPa, Gas	0.0107
303.18 K, 8071 kPa, Liquid	0.0855
303.2 K, 16008 kPa, Liquid	0.08894
303.2 K, 25794 kPa, Liquid	0.0928
303.21 K, 11886 kPa, Liquid	0.08665
303.21 K, 30558 kPa, Liquid	0.09462
303.24 K, 7824 kPa, Liquid	0.08506
303.25 K, 25489 kPa, Liquid	0.09272
303.27 K, 20510 kPa, Liquid	0.09093
303.28 K, 7854 kPa, Liquid	0.08529
303.31 K, 16446 kPa, Liquid	0.08918
